The numbers were not newly measured in publication PMC3433420 (PLoS ONE, 2012), which cites them from elsewhere.

pKd: −log10 of the molar value. Like-named read-outs stand apart in the source and are kept apart here.

For one data set, the target named is SH2 and PTB domains. The conditions noted are these: most recent PM interactions, cited from earlier work. The source says:
Supplement pone.0044471.s022.xlsx, sheet "Most recent PM interactions" | column: Kd || Supplement pone.0044471.s022.xlsx, sheet "All original PM interactions" | column: Kd

For another data set, the target named is GRB7 SH2 domain (Homo sapiens, UniProt Q14451). Further details: 6X His; thioredoxin; made in house; host or cells: E. coli BL21(DE3)pLysS. The conditions noted are these: Protein GRB7, most recent PM interactions, cited from earlier work.
Chain of GRB7 SH2 domain (Q14451 431-527 limits assumed): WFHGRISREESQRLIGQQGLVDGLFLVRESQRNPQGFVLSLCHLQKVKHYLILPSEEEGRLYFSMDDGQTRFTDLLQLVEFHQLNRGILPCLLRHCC
Setting [1] is: Protein BLK, ref Jones et al. 2006 / Kaushansky et al. Chem and Biol 2008.
Where [2] appears, read: Protein SRC, ref Jones et al. 2006 / Kaushansky et al. Chem and Biol 2008.
[3] abbreviates: Protein SYK-NC, ref Jones et al. 2006 / Kaushansky et al. Chem and Biol 2008.
Setting [4] is: Protein YES1, ref Jones et al. 2006 / Kaushansky et al. Chem and Biol 2008.
The mark [5] stands for this setting: ref Jones et al. 2006 / Kaushansky et al. Chem and Biol 2008.

In the case of EHKDNIGSQpYLLNWCVQd [ErbB1 813], the pKd at SH2 and PTB domains (Protein ABL2, ref Kaushansky et al. Mol Biosys 2008) was 6.70; at SH2 and PTB domains (Protein GRB10, ref Kaushansky et al. Mol Biosys 2008), 6.46; on SH2 and PTB domains (Protein ITK, ref Kaushansky et al. Mol Biosys 2008), 6.51; at SH2 and PTB domains (Protein NCK2, ref Kaushansky et al. Mol Biosys 2008), 6.70; at SH2 and PTB domains (Protein PIK3R1-C, ref Kaushansky et al. Mol Biosys 2008), 5.73; at SH2 and PTB domains (Protein PIK3R1-NC, ref Kaushansky et al. Mol Biosys 2008) it was 5.74. For the same substance, the pKd on SH2 and PTB domains (Protein PIK3R3-NC, ref Kaushansky et al. Mol Biosys 2008) was 5.73; on SH2 and PTB domains (Protein RASA1-C, ref Kaushansky et al. Mol Biosys 2008), 5.71; at SH2 and PTB domains (Protein RASA1-NC, ref Kaushansky et al. Mol Biosys 2008) it was 6.80; at SH2 and PTB domains (Protein SH2D1B, ref Kaushansky et al. Mol Biosys 2008), 5.80; at SH2 and PTB domains (Protein SH2D3C, ref Kaushansky et al. Mol Biosys 2008), 7.30; at SH2 and PTB domains (Protein SHB, ref Kaushansky et al. Mol Biosys 2008), 6.55. The pKd on SH2 and PTB domains (Protein SHE, ref Kaushansky et al. Mol Biosys 2008) was 5.86; at SH2 and PTB domains (Protein SHF, ref Kaushansky et al. Mol Biosys 2008), 5.97; at SH2 and PTB domains (Protein SRC, ref Kaushansky et al. Mol Biosys 2008), 7.10; on SH2 and PTB domains (Protein SYK-NC, ref Kaushansky et al. Mol Biosys 2008), 6.62; on SH2 and PTB domains (Protein TENC1, ref Kaushansky et al. Mol Biosys 2008), 5.94; at SH2 and PTB domains (Protein TNS3, ref Kaushansky et al. Mol Biosys 2008), 5.72. Moreover, the pKd was 6.43 on SH2 and PTB domains (Protein VAV1, ref Kaushansky et al. Mol Biosys 2008); 6.33 at SH2 and PTB domains (Protein VAV2, ref Kaushansky et al. Mol Biosys 2008); 6.02 on SH2 and PTB domains (Protein VAV3, ref Kaushansky et al. Mol Biosys 2008); 7.66 at SH2 and PTB domains (Protein YES1, ref Kaushansky et al. Mol Biosys 2008); 6.34 at GRB7 SH2 domain (ref Kaushansky et al. Mol Biosys 2008).

On to LPSPTDSNFpYRALMDEEd [ErbB1 998], for which the pKd is 6.72 at SH2 and PTB domains (Protein BLK, ref Jones et al. 2006 / Kaushansky et al. Mol Biosys 2008 / Kaushansky et al. Chem and Biol 2008); 5.91 on SH2 and PTB domains (Protein FES, ref Jones et al. 2006 / Kaushansky et al. Mol Biosys 2008 / Kaushansky et al. Chem and Biol 2008); 5.77 at SH2 and PTB domains (Protein GRB10, ref Jones et al. 2006 / Kaushansky et al. Mol Biosys 2008 / Kaushansky et al. Chem and Biol 2008); 6.55 on SH2 and PTB domains (Protein ITK, ref Jones et al. 2006 / Kaushansky et al. Mol Biosys 2008 / Kaushansky et al. Chem and Biol 2008); 6.62 on SH2 and PTB domains (Protein PIK3R1-NC, ref Jones et al. 2006 / Kaushansky et al. Mol Biosys 2008 / Kaushansky et al. Chem and Biol 2008); 6.01 at SH2 and PTB domains (Protein PIK3R3-NC, ref Jones et al. 2006 / Kaushansky et al. Mol Biosys 2008 / Kaushansky et al. Chem and Biol 2008). In addition, the pKd is 5.86 on SH2 and PTB domains (Protein PLCG2-NC, ref Jones et al. 2006 / Kaushansky et al. Mol Biosys 2008 / Kaushansky et al. Chem and Biol 2008); 6.15 on SH2 and PTB domains (Protein RASA1-N, ref Jones et al. 2006 / Kaushansky et al. Mol Biosys 2008 / Kaushansky et al. Chem and Biol 2008); 5.78 on SH2 and PTB domains (Protein RASA1-NC, ref Jones et al. 2006 / Kaushansky et al. Mol Biosys 2008 / Kaushansky et al. Chem and Biol 2008); 5.87 on SH2 and PTB domains (Protein SH2B3, ref Jones et al. 2006 / Kaushansky et al. Mol Biosys 2008 / Kaushansky et al. Chem and Biol 2008); 5.94 on SH2 and PTB domains (Protein SHC1-PTB, ref Jones et al. 2006 / Kaushansky et al. Mol Biosys 2008 / Kaushansky et al. Chem and Biol 2008); 6.01 on SH2 and PTB domains (Protein SHC2-PTB, ref Jones et al. 2006 / Kaushansky et al. Mol Biosys 2008 / Kaushansky et al. Chem and Biol 2008). Further, the pKd on SH2 and PTB domains (Protein SRC, ref Jones et al. 2006 / Kaushansky et al. Mol Biosys 2008 / Kaushansky et al. Chem and Biol 2008) was 5.94; on SH2 and PTB domains (Protein SYK-NC, ref Jones et al. 2006 / Kaushansky et al. Mol Biosys 2008 / Kaushansky et al. Chem and Biol 2008), 6.04; on SH2 and PTB domains (Protein YES1, ref Jones et al. 2006 / Kaushansky et al. Mol Biosys 2008 / Kaushansky et al. Chem and Biol 2008), 6.14; on SH2 and PTB domains (Protein ZAP70-NC, ref Jones et al. 2006 / Kaushansky et al. Mol Biosys 2008 / Kaushansky et al. Chem and Biol 2008), 5.78; at GRB7 SH2 domain (ref Jones et al. 2006 / Kaushansky et al. Mol Biosys 2008 / Kaushansky et al. Chem and Biol 2008), 6.12.

For the substance MGDLVDAEEpYLVPQQGF [ErbB2 1023], the pKd on SH2 and PTB domains (setting [1]) is 6.22; at SH2 and PTB domains (Protein ITK, ref Jones et al. 2006 / Kaushansky et al. Chem and Biol 2008), 6.35; on SH2 and PTB domains (Protein PIK3R1-NC, ref Jones et al. 2006 / Kaushansky et al. Chem and Biol 2008) it was 5.79; at SH2 and PTB domains (Protein PIK3R2-N, ref Jones et al. 2006 / Kaushansky et al. Chem and Biol 2008) it was 5.71; at SH2 and PTB domains (Protein PIK3R3-N, ref Jones et al. 2006 / Kaushansky et al. Chem and Biol 2008) it was 5.71; at SH2 and PTB domains (Protein PIK3R3-NC, ref Jones et al. 2006 / Kaushansky et al. Chem and Biol 2008) it was 6.28. Moreover, the pKd on SH2 and PTB domains (Protein PLCG1-C, ref Jones et al. 2006 / Kaushansky et al. Chem and Biol 2008) is 5.84; at SH2 and PTB domains (Protein RASA1-N, ref Jones et al. 2006 / Kaushansky et al. Chem and Biol 2008) it was 5.70; on SH2 and PTB domains (Protein RASA1-NC, ref Jones et al. 2006 / Kaushansky et al. Chem and Biol 2008) it was 5.75; at SH2 and PTB domains (setting [2]) it was 6.12; on SH2 and PTB domains (Protein SUPT6H, ref Jones et al. 2006 / Kaushansky et al. Chem and Biol 2008) it was 6.04; at SH2 and PTB domains (setting [3]), 6.43. For the same substance, the pKd on SH2 and PTB domains (setting [4]) is 5.93; at GRB7 SH2 domain (setting [5]), 5.74.

Turning to RLLDIDETEpYHADGGKVd [ErbB2 877], the pKd on SH2 and PTB domains (Protein BLK, ref Kaushansky et al. Chem and Biol 2008) was 6.14; at SH2 and PTB domains (Protein PLCG2-N, ref Kaushansky et al. Chem and Biol 2008) it was 6.19; at SH2 and PTB domains (Protein PLCG2-NC, ref Kaushansky et al. Chem and Biol 2008) it was 5.96; at SH2 and PTB domains (Protein RASA1-NC, ref Kaushansky et al. Chem and Biol 2008) it was 5.85; on SH2 and PTB domains (Protein YES1, ref Kaushansky et al. Chem and Biol 2008) it was 5.72; at GRB7 SH2 domain (ref Kaushansky et al. Chem and Biol 2008), 5.92.

Turning to TEEEDEDEEpYEYMNRRR [ErbB3 1197], the pKd on SH2 and PTB domains (Protein ABL1, ref Jones et al. 2006 / Kaushansky et al. Chem and Biol 2008) is 5.84; at SH2 and PTB domains (Protein ABL2, ref Jones et al. 2006 / Kaushansky et al. Chem and Biol 2008), 5.95; on SH2 and PTB domains (setting [1]) it was 7.15; on SH2 and PTB domains (Protein FGR, ref Jones et al. 2006 / Kaushansky et al. Chem and Biol 2008), 6.15; on SH2 and PTB domains (Protein LYN, ref Jones et al. 2006 / Kaushansky et al. Chem and Biol 2008), 5.97; at SH2 and PTB domains (setting [2]) it was 6.06. The pKd is 6.05 at SH2 and PTB domains (setting [3]); 6.89 at SH2 and PTB domains (setting [4]); 6.89 at GRB7 SH2 domain (setting [5]).

By pKd is commonly meant the Kd on a negative log10 scale, so that one unit is a factor of ten.
